Assay results reported in article PMC12786457, “Studies on the Complexation of Platinum(II) by Some 4-Nitroisothiazoles and the Cytotoxic Activity of the Resulting Complexes” (Molecules, 2025).
Like-named read-outs stand apart in the source and are kept apart here.

Tests used:
[1] = tested on: BALB/3T3 (mouse embryonic fibroblast); experiment: SRB (sulforhodamine B) viability assay, normal cells BALB/3T3; format: cell-based; settings: normoxia, read-out: IC50 ± SD, Normal Cells BALB/3T3, Normoxia
Experimental: (§1) The cytotoxicity of the complexes C1–C5 was estimated by examining cell viability using the sulforhodamine B assay. […] However, due to the very poor solubility of the most polar complex C5 in acetone, its initial solution had to be prepared in polar N,N-dimethylacetamide (DMA) (see Section 3.7). Cisplatin was used as the reference drug. The results are presented as IC50 (50% inhibitory concentration), i.e., concentrations that reduce cell survival by 50%. The test was conducted on three cancer cell lines and one normal healthy cell line, namely, breast adenocarcinoma (MCF-7), ovarian adenocarcinoma (ES-2), lung adenocarcinoma (A549), and murine embryonic fibroblast (BALB/3T3).
(§2) Three solid tumor cell lines were used in this study: MCF-7 (breast adenocarcinoma), ES-2 (ovarian adenocarcinoma), and A549 (lung adenocarcinoma). The BALB/3T3 (mouse embryonic fibroblast) cell line was used as a comparative nonpathological tissue. All cell lines were purchased from the American Type Culture Collection (ATCC, Rockville, MD, USA). The preparation of cell cultures for cytotoxicity experiments is described in detail in the following article.
(§3) The initial solutions for subsequent dilutions in biological medium were prepared in a similar manner as described previously. […] The complex C5 was dissolved in the dimethylacetamide (DMA). All the initial solutions were prepared ex tempore and then were added to the culture medium 1:9 (v/v) to obtain a stock solution of 1 mg/mL.
(§4) The test was prepared and performed in the same manner as detailed in the following cited works.

[2] = tested on: MCF-7 (breast adenocarcinoma); experiment: SRB (sulforhodamine B) viability assay, MCF-7; format: cell-based, human; settings: for IC50: SRB assay
Experimental: as §1, §2, §3, §4

[3] = tested on: ES-2 (ovarian adenocarcinoma); experiment: SRB (sulforhodamine B) viability assay, ES-2; format: cell-based, human
Experimental: as §1, §2, §3, §4

[4] = TLC Rf as a measure of relative lipophilicity; format: physicochemical; settings: silica gel TLC Al foils
Experimental: Measurement of the melting points (m.p.) of the obtained compounds was performed with the Büchi M560 melting point device (BÜCHI Labortechnik AG, CH-9230 Flawil/SG, Flawil, Switzerland) and was uncorrected. The ESI-MS (electrospray ionization mass spectroscopy) spectra were recorded with the compactTM Bruker Daltonics Electrospray Ionization Quadrupole Time-of-Flight (ESI-Q-TOF) spectrometer (Bruker Daltonics GmbH, Bremen, Germany). The ESI-MS measurements for new compounds were performed in both positive- and negative-ion mode in LC-MS-grade using LC-MS grade methanol as a solvent. ESI-MS spectral analysis and the simulation of the theoretical monoisotopic mass of detected ions were performed using Bruker Compass Data Analysis 4.2 software (Bruker Daltonics GmbH, Bremen, Germany). All ^1H and ^13C-NMR spectra were recorded on the following instruments: Bruker NMR AVANCE III™ 600 MHz spectrometer with Ascend™ technology magnet with a quadruple resonance NMR ‘inverse’ cryoprobe (Bruker Corporation, Billerica, MA, USA) and/or Bruker ARX-300 (300 MHz) spectrometer (Bruker Analytische Messtechnik GmbH, Rheinstetten, Germany). The NMR measurements of samples of the compounds were carried out at room temperature (20–25 °C) using 5 mm tubes in deuterated acetone-d6. NMR chemical shifts were referenced to the solvent signal, i.e., for ^1H-NMR: δ (quintet of residual acetone-d6) = 2.05 ppm and for ^13C-NMR: δ (septet of acetone-d6) = 29.84 ppm. The Nicolet iS50 FT-IR spectrophotometer (Thermo Fisher Scientific Inc., Waltham, MA, USA) was used to record the Attenuated Total Reflectance IR (ATR-FT-IR) spectra (at MIR range 4000–450 cm^−1). Recording of spectra was performed on the diamond crystal surface (32 scans, resolution: 1 cm^−1, measurement temperature: 20–25 °C) with ATR intensity correction in the Laboratory of Elemental Analysis and Structural Research, Faculty of Pharmacy, Wroclaw Medical University. A Fourier transform, Bruker VERTEX 70V vacuum spectrometer equipped with an air-cooled DTGS detector was used to obtain the Far-IR (far-infrared) spectra (below 500 cm^−1) of the Pt(II) complexes. The spectra measurements were conducted with the ATR accessory, such as a diamond ATR crystal, in the resolution of 1 cm^−1 with 64 scans in the Laboratory of Vibrational Spectroscopy of the Faculty of Chemistry at Wrocław University of Science and Technology. No ATR intensity correction was applied to Far-IR spectra. Omnic 9.3.30 and Omnic Specta 2.0 software (Thermo Fisher Scientific Inc.) was used to process and analyze spectra. A double beam U-2800 Spectrophotometer (Hitachi—Science & Technology, Tokyo, Japan) was used to record UV spectra of Pt-complexes (C1 and C2) and reaction rate measurements of the GSH complexes. Dioxane solutions of complexes were used in the following concentrations: c = 2 × 10^−5 M and 3 × 10^−5 M, respectively, for C1 and C2. Measurement of UV spectra was conducted in quartz cuvettes (path length = 10.0 mm) in the range 190–400 nm (sampling interval 1 nm, scan speed 200 nm/min). All UV experiments were performed in the Laboratory of Elemental Analysis and Structural Research, Faculty of Pharmacy, Wroclaw Medical University. Baselines were corrected with pure dioxane as the reference solvent. Thin-layer chromatography (TLC) was used to monitor the progress of the reaction course and determine the purity of the synthesized compounds. Silica gel on TLC Al foils with fluorescent indicator 254 nm (Sigma-Aldrich, Merck Group, Darmstadt, Germany) was used as the stationary phase and chloroform–acetone mixtures (volume ratios 9:1, 7:3, and 1:1) as the eluent. Detection of Pt(II) compounds in the chromatograms was performed using a 0.5% acetone solution of rubeanic acid (dithiooxamide), and organic impurities were detected by observing the plates under UV light at 250 nm. […]

[5] = TLC Rf as a measure of relative lipophilicity; format: physicochemical; settings: silica gel TLC Al foils; remark: listed apart in the source
[6] = hypoxia, read-out: IC50 ± SD, MCF-7 (Breast), Hypoxia
[7] = normoxia, read-out: IC50 ± SD, MCF-7 (Breast), Normoxia
[8] = hypoxia, read-out: IC50 ± SD, ES-2 (Ovarian), Hypoxia
[9] = normoxia, read-out: IC50 ± SD, ES-2 (Ovarian), Normoxia

Molecule | IC50 [1] | IC50 [2, 6] | IC50 [2, 7] | IC50 [3, 8] | IC50 [3, 9] | Rf, Eluent: Chlorofom:Acetone Ratio 1:1 Vol. [4] | Rf, Eluent: Chlorofom:Acetone Ratio 9:1 Vol. [4] | Rf, Eluent: Chlorofom:Acetone Ratio 9:7 Vol. [5] | selectivity index (SI), healthy cells vs MCF-7 ([2]; ratio of cytotoxicity towards healthy BALB/3T3 cells to cytotoxicity towards MCF-7, normoxia)
Dichlorobis(3-methyl-4-nitroisothiazole)platinum(II) [C1] | 7.31 ± 0.82 µM | 8.45 ± 2.25 µM | 4.59 ± 1.57 µM | 6.37 ± 1.69 µM | 7.29 ± 1.42 µM | 0.726 | 0.054 | 0.442 | –
Cc1nscc1[N+](=O)[O-].Cc1nscc1[N+](=O)[O-].[Cl][Pt][Cl] [C2, trans-Dichlorobis(3-methyl-4-nitroisothiazole)platinum(II)] | 1.14 ± 0.28 µM | 9.07 ± 5.07 µM | 6.16 ± 0.78 µM | 1.1 ± 0.34 µM | 2.14 ± 2.21 µM | 0.833 | 0.355 | 0.756 | ≈ 0.2
COC(=O)c1snc(C)c1[N+](=O)[O-].COC(=O)c1snc(C)c1[N+](=O)[O-].[Cl][Pt][Cl] [C4, trans-Dichlorobis(3-methyl-4-nitro-5-(methoxycarbonyl)isothiazole)platinum(II)] | 5.99 ± 1.28 µM | 7.68 ± 4.45 µM | 6.94 ± 2.25 µM | 5.44 ± 1.64 µM | 3.89 ± 1.62 µM | 0.863 | 0.828 | 0.849 | –
COC(=O)c1snc(C)c1[N+](=O)[O-].Cc1nscc1[N+](=O)[O-].[Cl][Pt][Cl] [C3, trans-Dichloro-3-methyl-4-nitroisothiazole 3-Methyl-4-nitro-5-(methoxycarbonyl)isothiazole Platinum(II)] | 2.94 ± 3.06 µM | 7.13 ± 1.93 µM | 5.25 ± 1.01 µM | 4.02 ± 2.47 µM | 3.9 ± 2.68 µM | 0.845 | 0.645 | 0.814 | –
